One assay deals with control (Neo) cells. The assay is described as follows: Oxygen consumption rate (OCR) assay, control (Neo) HEK293 cells. The format is cell-based. The settings on record: Homo sapiens; control (Neo) HEK293 cells; MitoXpress Xtra, 2 hours; read-out: Oxygen Consumption Rate (OCR) IC50, Neo. The text has this:
(§1) Diabetologia 2011, 54 (12): 3101-3110, each incorporated by reference with regard to such testing. The compounds of the present invention are similarly tested in an oxygen consumption rate (OCR) assay to evaluate the functional activity of test compounds in cells.
(§2) In brief, the assay uses HEK293 cells stably transfected with the human OCT1, OCT2, OCT3, PMAT, or MATE1 transporters to determine a compound's relative transporter selectivity and its effect on the rate of oxygen consumption relative to control (Neo) cells. The MitoXpress Xtra oxygen-sensitive fluorophore is used to monitor oxygen consumption rates in the presence and absence of compound treatments. The analogs were tested at eight (8) different concentrations in triplicate to determine a relative IC50 value.
(§3) A summary description of the protocol is as follows:
(§4) HEK293 cells transformed with human organic cation transporters were plated in collagen coated, 96-well black-walled microclear plates (Greiner-Bio 1, #655956) at 60,000 cells per well in growth medium (DMEM (LG), 10% FBS, 400 μg/ml G418). Cells were incubated overnight to allow attachment. The outer columns (1 and 12) are not seeded with cells, as controls. The next day, plating medium was removed and replaced with 150 μL of assay medium (DMEM/F12 (PRF), 5% FBS, antibiotics) containing compound dilutions. A 3-fold serial dilution was prepared in the assay medium and transferred to the empty wells. The outer columns and column 11 received 150 μL of assay medium only. 10 μL of MitoXpress Xtra reagent was added to each test well, and 100 μL of pre-warmed mineral oil was overlayed in each well to create a seal. Dual read time-resolved fluorescence (BMG FluoStar Galaxy reader) was measured over 2 hours with measurements taken every 2 minutes. Excitation is 340 nm, Emission is 650 nm. For lifetime analysis, two measurements per well were taken: 1) delay of 30 μs, with a window of 30 μs; and 2) delay of 70 μs with a window of 30 μs. Background TRF values from A1-D1 were subtracted from all readings. A ratiometric analysis was performed to determine changes in the Lifetime fluorescence signal:Lifetime (μs) [T]=(D2−D1)/ln(W1/W2), where D is delay; W is fluorescence window value at each time point. Lifetime slopes were calculated using each Lifetime measurement over time. IC50 values were determined by plotting lifetime slope values vs. compound concentration.

For the next assay, the target named is T1, human MATE1 (Homo sapiens, UniProt Q96FL8).
T1 sequence (Q96FL8 1-570): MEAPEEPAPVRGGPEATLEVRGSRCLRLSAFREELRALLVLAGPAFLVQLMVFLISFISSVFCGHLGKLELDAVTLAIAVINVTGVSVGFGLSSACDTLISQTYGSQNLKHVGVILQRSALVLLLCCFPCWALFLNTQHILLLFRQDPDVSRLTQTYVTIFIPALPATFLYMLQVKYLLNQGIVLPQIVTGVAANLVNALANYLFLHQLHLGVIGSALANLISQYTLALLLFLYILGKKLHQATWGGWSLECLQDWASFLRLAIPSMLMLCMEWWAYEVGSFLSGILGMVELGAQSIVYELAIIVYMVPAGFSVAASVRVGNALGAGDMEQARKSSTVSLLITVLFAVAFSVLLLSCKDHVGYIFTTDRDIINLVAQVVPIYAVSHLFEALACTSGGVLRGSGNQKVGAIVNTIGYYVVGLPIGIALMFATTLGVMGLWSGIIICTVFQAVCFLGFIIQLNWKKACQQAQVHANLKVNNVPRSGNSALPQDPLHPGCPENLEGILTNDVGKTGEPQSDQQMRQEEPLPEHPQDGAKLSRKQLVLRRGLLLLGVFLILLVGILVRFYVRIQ
The assay can be described thus: Oxygen consumption rate (OCR) assay, HEK293 cells transfected with MATE1. Conditions: for inhibition at 1000 µM: HEK293, read-out: Oxygen Consumption Rate (OCR), MATE 1, % Inhibition at 1000 μM test concentration.
Excerpt: The compounds of the present invention are similarly tested in an oxygen consumption rate (OCR) assay to evaluate the functional activity of test compounds in cells.
as §2, §3
as §4, with “Cells” for “HEK293 cells transformed with human organic cation transporters were plated in collagen coated, 96-well black-walled microclear plates (Greiner-Bio 1, #655956) at 60,000 cells per well in growth medium (DMEM (LG), 10% FBS, 400 μg/ml G418). Cells”

Another assay deals with T2, human PMAT (Homo sapiens, UniProt Q7RTT9).
T2 construct: expressed in transfected cells; host or cells: HEK293
T2 sequence (Q7RTT9 1-530): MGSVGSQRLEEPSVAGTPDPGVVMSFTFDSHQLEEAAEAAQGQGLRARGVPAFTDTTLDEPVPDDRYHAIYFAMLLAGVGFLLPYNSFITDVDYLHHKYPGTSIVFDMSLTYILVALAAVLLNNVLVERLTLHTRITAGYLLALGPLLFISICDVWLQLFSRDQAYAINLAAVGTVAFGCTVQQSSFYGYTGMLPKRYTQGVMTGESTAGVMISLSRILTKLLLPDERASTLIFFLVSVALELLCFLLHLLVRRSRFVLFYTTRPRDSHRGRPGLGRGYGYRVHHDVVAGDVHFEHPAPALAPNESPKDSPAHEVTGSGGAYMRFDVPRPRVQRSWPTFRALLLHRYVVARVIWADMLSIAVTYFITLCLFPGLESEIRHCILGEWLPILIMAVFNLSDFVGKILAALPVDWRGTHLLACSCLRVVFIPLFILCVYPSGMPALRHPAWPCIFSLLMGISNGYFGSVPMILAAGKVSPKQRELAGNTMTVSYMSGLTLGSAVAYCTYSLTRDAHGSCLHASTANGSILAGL
The assay is described as follows: Oxygen consumption rate (OCR) assay, HEK293 cells transfected with PMAT. The format is cell-based. Conditions: for inhibition at 10 µM: HEK293 cells with human PMAT.
Excerpt: as §1, §2, §3, §4

Where a name gives a salt, the structure may show the parent alone.

As to `N=C(N)NC(=N)NCCCc1c[nH]c2ccccc12` [Ex 7, hydrochloride], the IC50 in the assay on control (Neo) cells was greater than 10 mM. In addition, the inhibition at 1000 µM at human MATE1 stood at 36%. Also, the inhibition at 10 µM against human PMAT stood at 7%.

For `CC(Cc1c[nH]c2ccc(F)cc12)NC(=N)NC(=N)N` (stereo not drawn) [Ex 5, 1-[1-(5-fluoro-1H-indol-3-yl)propan-2-yl]imidodicarbonimide diamide], the concentration for half-maximal inhibition (IC50) in the assay with control (Neo) cells worked out at 1.88 mM. Further, the inhibition at 1000 µM on human MATE1 stood at 65%. The inhibition at 10 µM at human PMAT is 12%.

For the compound `Cc1cccc2c(CCNC(=N)NC(=N)N)c[nH]c12` [Ex 59, 1-[2-(7-methyl-1H-indol-3-yl)ethyl]imidodicarbonimide diamide, trifluoroacetic acid salt], the results for the IC50 in the assay on control (Neo) cells and against human MATE1 were 1.29 mM and 0.112 mM, respectively. In addition, the inhibition at 10 µM at human PMAT was found to be 47%.

Take `CC(Cc1cn(C)c2ccc(F)cc12)NC(=N)NC(=N)N` (stereo not drawn) [Ex 6, 1-[1-(5-fluoro-1-methyl-1H-indol-3-yl)propan-2-yl]imidodicarbonimide Diamide]: the half-maximal inhibitory concentration (IC50) in the assay with control (Neo) cells is greater than 10 mM. Moreover, the inhibition at 1000 µM on human MATE1 came out at 18%. For the same compound, the inhibition at 10 µM against human PMAT turned out to be 8%.

`N=C(N)NC(=N)NCCc1c[nH]c2cc(Cl)c(F)cc12` [Ex 48, 1-[2-(6-chloro-5-fluoro-1H-indol-3-yl)ethyl]imidodicarbonimide diamide, trifluoroacetic acid salt]: the figures for the IC50 with control (Neo) cells and against human MATE1 were 0.21 mM and 0.101 mM, respectively. For the same compound, the inhibition at 10 µM at human PMAT turned out to be 61%.

On to `CN(C)C(=N)NC(=N)NCCc1c[nH]c2ccc(C(F)(F)F)cc12` [Ex 32, 3-(2-(5-trifluoromethyl-1H-indol-3-yl)ethyl)-1,1-dimethyl imidodicarbonimide diamide hydrochloride], for which the IC50 with control (Neo) cells was found to be 0.397 mM; against human MATE1, 0.681 mM. In addition, the inhibition at 10 µM at human PMAT worked out at 10%.

Consider `N=C(N)NC(=N)NCCc1c[nH]c2cc(Cl)ccc12` [Ex 35, 1-[2-(6-chloro-1H-indol-3-yl)ethyl]imidodicarbonimide diamide, trifluoroacetic acid salt], for which the IC50 with control (Neo) cells turned out to be 0.205 mM; against human MATE1, 0.02 mM. The inhibition at 10 µM at human PMAT is 68%.

As to `Cc1ccc2c(CCNC(=N)NC(=N)N)c[nH]c2c1` [Ex 56, 1-[2-(6-methyl-1H-indol-3-yl)ethyl]imidodicarbonimide diamide, trifluoroacetate salt], the results for the 50% inhibitory concentration (IC50) in the assay on control (Neo) cells and against human MATE1 were 0.895 mM and 0.769 mM, respectively. In addition, the inhibition at 10 µM at human PMAT turned out to be 43%.

Regarding `Cc1[nH]c2cc(F)ccc2c1CCNC(=N)NC(=N)N` [Ex 31, 1-[2-(6-fluoro-2-methyl-1H-indol-3-yl)ethyl]imidodicarbonimide diamide, trifluoroacetic acid salt], the IC50 in the assay with control (Neo) cells was found to be 4.87 mM; at human MATE1, 13.4 mM. At human PMAT, the inhibition at 10 µM stood at 35%.

Regarding `N=C(N)NC(=N)NCCc1c[nH]c2ccc(OC(F)(F)F)cc12` [Ex 57, 1-[2-(5-trifluoromethoxy-1H-indol-3-yl)ethyl]imidodicarbonimide diamide, trifluoroacetic acid salt], the results for the IC50 in the assay with control (Neo) cells and on human MATE1 were 0.255 mM and 0.631 mM, respectively. In addition, the inhibition at 10 µM against human PMAT was determined as 6%.

In the case of `N=C(N)NC(=N)NCCc1c[nH]c2ccncc12` [Ex 22, 1-(2-(1H-pyrrolo[3,2-c]pyridin-3-yl)ethyl)imidodicarbonimide diamide hydrochloride], the IC50 came out at 3.24 mM with control (Neo) cells and 2.98 mM against human MATE1. Also, the inhibition at 10 µM at human PMAT was -7%.

`N=C(N)NC(=N)NCCc1c[nH]c2ccccc12` [Ex 17, 1-[2-(1H-indol-3-yl)ethyl]imidodicarbonimide diamide hydrochloride]: the IC50 is greater than 5 mM in the assay on control (Neo) cells and 4.84 mM against human MATE1. On human PMAT, the inhibition at 10 µM is 54%.

For `N=C(N)NC(=N)NCCc1c[nH]c2cccnc12` [Ex 21, 1-(2-(1H-pyrrolo[3,2-b]pyridin-3-yl)ethyl)imidodicarbonimide diamide acetate], the values for the concentration for half-maximal inhibition (IC50) with control (Neo) cells and at human MATE1 were greater than 3 mM and 1.54 mM, respectively. For the same compound, the inhibition at 10 µM on human PMAT is 27%.

As to `Cc1ccc2[nH]cc(CCNC(=N)NC(=N)N)c2c1` [Ex 10, 1-[2-(5-methyl-1H-indol-3-yl)ethyl]imidodicarbonimide diamide trifluoroacetic acid salt], the IC50 with control (Neo) cells worked out at 0.439 mM; against human MATE1, 2.19 mM. The inhibition at 10 µM against human PMAT worked out at 43%.

With `N=C(N)NC(=N)NCCc1c[nH]c2nc(F)ccc12` [Ex 45, 1-(2-(6-fluoro-1H-pyrrolo[2,3-b]pyridin-3-yl)ethyl)imidodicarbonimide diamide, trifluoroacetic acid salt], the IC50 in the assay on control (Neo) cells was 11.4 mM; against human MATE1, greater than 3 mM; at human PMAT (HEK293 cells stably transfected with human PMAT, MitoXpress Xtra, 2 hours, read-out: Oxygen Consumption Rate (OCR) IC50, PMAT), 0.014 mM.

Turning to `N=C(N)NC(=N)NCCc1c[nH]c2ccc([N+](=O)[O-])cc12` [Ex 18, 1-[2-(5-nitro-1H-indol-3-yl)ethyl]imidodicarbonimide diamide, trifluoroacetic acid salt], the IC50 with control (Neo) cells was determined as 1.41 mM. Further, the inhibition at 1000 µM at human MATE1 is -26%. In addition, the inhibition at 10 µM at human PMAT was determined as 27%.

Take `Cc1c(CCNC(=N)NC(=N)N)c2ccccc2n1C` [Ex 16, 1-[2-(1,2-dimethyl-1H-indol-3-yl)ethyl]imidodicarbonimide diamide]: the IC50 in the assay on control (Neo) cells was found to be 1.21 mM. The inhibition at 1000 µM on human MATE1 stood at 10%. In addition, on human PMAT, the inhibition at 10 µM turned out to be 36%.

On to `Cn1cc(CCNC(=N)NC(=N)N)c2cc(F)ccc21` [Ex 4, 1-[2-(5-fluoro-1-methyl-1H-indol-3-yl)ethyl]imidodicarbonimide diamide], for which the IC50 in the assay on control (Neo) cells is 0.678 mM; on human MATE1 it was 1.57 mM. The inhibition at 10 µM at human PMAT worked out at 41%.

For the origin of these results see patent US12371404B2, “Fused bicyclic alkylene linked imidodicarbonimidic diamides, methods for synthesis, and uses in therapy” (NovaTarg, Inc., priority 2016, dated 2025).
